From patent publication US11815435B2, “Beta glucan immunopharmacodynamics” (HiberCell, Inc., priority 2017, dated 2023)
Entries after “also recorded” stand apart in the source; their conditions may differ.

Assays:
[1] = system: circulating immune complexes (CIC); assay: Circulating immune complex (CIC) formation in serum by ELISA after IV PGG; type: in vivo, human; settings: single dose PGG IV, at EOI
Description: (§1) IPD changes induced by yeast soluble β-glucan were evaluated in a Phase I healthy donor trial, which included three cohorts of 12 healthy human volunteers aged 18-65 years. In Cohort 1, subjects were administered a single dose of 4 mg/kg yeast soluble β-glucan by IV infusion over 2-3 hours. In Cohort 2, subjects were administered 4 mg/kg PGG by IV infusion over 2-3 hours once weekly for 3 weeks. Half of the subjects received premedications which included low dose corticosteroids (4 mg of dexamethasone, PO) and low-dose H1 antagonists (50 mg diphenhydramine.
Subjects were stratified/classified into subgroups based on pre-infusion ABA levels. ABA cutoff levels were selected based on prior studies and are only exemplary. Classification may include only 2 subgroups based on an IgG ABA cutoff level of 15 μg/ml, 20 μg/ml, 25, μg/ml, 30 μg/ml, 35 μg/ml, 40 μg/ml, 45 μg/ml or 50 μg/ml. Classification may also include 3, 4, 5 or more subgroups with each subgroup corresponding to a specific IgG ABA level range. For example, a 3 subgroup classification may include a Low-ABA subgroup encompassing ABA level ranges of <15 μg/ml, <20 μg/ml, <25 μg/ml or <30 μg/ml, a Mid-ABA subgroup encompassing a range having a low end ABA level of 20 μg/ml, 25 μg/ml, 30 μg/ml, 35 μg/ml, 40 μg/ml or 45 μg/ml and a high end ABA level of 30 μg/ml, 35 μg/ml, 40 μg/ml, 45 μg/ml, 50 μg/ml or 55 μg/ml, and a High-ABA subgroup encompassing ABA level ranges of >35 μg/ml, >40 μg/ml, >45 μg/ml, >50 μg/ml, >55 μg/ml, >60 μg/ml, >65 μg/ml or >70 μg/ml. As discussed in International Published Application No. WO2015084732A1, various ABA cutoff levels may be used for reasons such as differences in soluble β-glucan immunotherapy treatments and preferences regarding inclusiveness and exclusiveness of subgroups. […] Serum and cellular IPD markers were analyzed pre-infusion, 15 minutes, 30 minutes and 1 hour post-infusion, end of infusion (EOI) and 1 hour, 2 hours, 3 hours, 4 hours, 24 hours, 48 hours and 168 hours after EOI.
Total CIC formation was measured in serum by ELISA (Quidel).

[2] = system: complement activation products, C5a and SC5b-9; assay: Complement activation in plasma by ELISA after IV PGG; type: in vivo, human; settings: healthy subjects, single dose PGG IV
Description: as §1
Subjects were stratified/classified into subgroups based on pre-infusion ABA levels. ABA cutoff levels were selected based on prior studies and are only exemplary. Classification may include only 2 subgroups based on an IgG ABA cutoff level of 15 μg/ml, 20 μg/ml, 25, μg/ml, 30 μg/ml, 35 μg/ml, 40 μg/ml, 45 μg/ml or 50 μg/ml. […] Serum and cellular IPD markers were analyzed pre-infusion, 15 minutes, 30 minutes and 1 hour post-infusion, end of infusion (EOI) and 1 hour, 2 hours, 3 hours, 4 hours, 24 hours, 48 hours and 168 hours after EOI.
Levels of complement activity, measured by […] (Quidel) in plasma, were determined by measuring complement activation products, C5a and SC5b-9. Levels were measured week 1 pre-infusion, 15 minutes, 30 minutes and 1 hour post-infusion, EOL 1 hour EOI and week 2 pre-infusion. […]

[3] = system: neutrophils, monocytes, B cells and subsets of dendritic cells (DC); assay: In vivo immune cell binding by flow cytometry from whole blood at EOI; design: species or system human; settings: High-ABA subjects, anti-PGG MAb staining
Description: In vivo immune cell binding was assessed by flow cytometry from whole blood of subjects dosed with PGG at the EOI. Gates were set based on BFDPV staining (anti-PGG MAb) on blood cells prior to infusion.

[4] = Adverse events after a single dose of IV PGG without premedication; type: in vivo, human
Description: as §1
In Cohort 3, subjects received either 2 mg/kg PGG or 4 mg/kg PGG by IV infusion over 1-2 hours. The subjects were administered either dose of PGG once weekly for 2 weeks, then given a 2 week wash out (no PGG) and finally received one more dose of PGG (week 5). Adverse events and complete blood counts were evaluated. In addition, whole blood and serum was evaluated for the following at various time points post-infusion: PGG binding to immune cells (monocytes, neutrophils, B-cells, DC subsets), complement activation (C5a and Sc5b9), serum cytokine/chemokine levels, IgG ABA levels, flow cytometry of immune cells, circulating immune complex formation and Quantigene analysis of transcriptional profile. Table 1 lists each subject's pre-dose IgG ABA levels, PGG dose and whether they received premedications.
Adverse events were evaluated for subjects after a single dose of IV PGG. Table 2 lists ABA levels and adverse events for subjects that had not received premedication prior to PGG infusion.

For “β(1,6)-[poly-(1,3)-D-glucopyranosyl]-poly-β(1,3)-D-glucopyranose [PGG]”, the “increase in CIC” value ([1]; High-ABA subjects) was “the highest increase in CIC”, the “increase in CIC” value ([1]; Low-ABA subjects) was “little increase in CIC” and the “increase in CIC” value ([1]; Mid-ABA subjects) was “a greater increase in CIC”. The “increase in complement activation (SC5b-9 levels)” value [2] was “correlated with ABA levels with levels peaking at EOI”, the “in vivo immune cell binding” value [3] was “bound to neutrophils, monocytes, B cells and subsets of dendritic cells (DC)” and the “adverse events vs ABA level” value ([4]; no premedication) was “more adverse events occurred as ABA levels increased”. The “infusion reaction-related adverse events (CARPA)” value ([4]; no premedication) was “observed in some, but not all, subjects with ABA levels>20 ug/ml”, the “Adverse Events (CTCAE grade)” value ([4]; subject 002, pre-dose ABA 34.4, no premedication) was “None” and the “Adverse Events (CTCAE grade)” value ([4]; subject 004, pre-dose ABA 39.7, no premedication) was “None”. For the same substance, the “Adverse Events (CTCAE grade)” value ([4]; subject 006, pre-dose ABA 127, no premedication) was “Gr 1 chills; also recorded: Gr 2 nausea/emesis; also recorded: Gr 2 chest pressure”, the “Adverse Events (CTCAE grade)” value ([4]; subject 010, pre-dose ABA 177.9, no premedication) was “Gr 1 back pain; also recorded: Gr 2 chest pressure; also recorded: Gr 2 nausea” and the “Adverse Events (CTCAE grade)” value ([4]; subject 016, pre-dose ABA 27.6, no premedication) was “Gr 1 headache”. For the same substance, the “Adverse Events (CTCAE grade)” value ([4]; subject 022, pre-dose ABA 87.8, no premedication) was “Gr 1 chest pressure; also recorded: Gr 1 light headedness; also recorded: Gr 1 abdominal cramping; also recorded: Gr 2 myalgia”, the “Adverse Events (CTCAE grade)” value ([4]; subject 025, pre-dose ABA 9.9, no premedication) was “None” and the “Adverse Events (CTCAE grade)” value ([4]; subject 034, pre-dose ABA 68.0, no premedication) was “Gr 1 chest pressure; also recorded: Gr 1 warm sensation; also recorded: Gr 1 light headedness; also recorded: Gr 1 nausea; also recorded: Gr 1 hand paresthesia; also recorded: Gr 2 chills; also recorded: Gr 3 headache”. For the same substance, the “Adverse Events (CTCAE grade)” value ([4]; subject 037, pre-dose ABA 10.4, no premedication) was “None”, the “Adverse Events (CTCAE grade)” value ([4]; subject 039, pre-dose ABA 13.6, no premedication) was “Gr 1 headache; also recorded: Gr 1 drowsiness” and the “Adverse Events (CTCAE grade)” value ([4]; subject 043, pre-dose ABA 32.6, no premedication) was “Gr 2 headache”. The “Adverse Events (CTCAE grade)” value ([4]; subject 047, pre-dose ABA 33.6, no premedication) was “None”, the “Adverse Events (CTCAE grade)” value ([4]; subject 055, pre-dose ABA 56.2, no premedication) was “Gr 1 nausea; also recorded: Gr 1 flushing; also recorded: Gr 2 chest pressure; also recorded: Gr 2 dyspnea; also recorded: Gr 2 low back pain; also recorded: Gr 2 headache (delayed); also recorded: Gr 2 back pain (delayed); also recorded: Gr 2 neck/shoulder” and the “Adverse Events (CTCAE grade)” value ([4]; subject 057, pre-dose ABA 37.3, no premedication) was “Gr 1 diarrhea”. For the same substance, the “Adverse Events (CTCAE grade)” value ([4]; subject 058, pre-dose ABA 34.0, elevated pre-dose CIC, no premedication) was “Gr 1 dysuria (delayed); also recorded: Gr 2 myalgia (delayed); also recorded: Gr 2 arthralgia”, the “Adverse Events (CTCAE grade)” value ([4]; subject 067, pre-dose ABA 15.0, no premedication) was “Gr 1 LE stiffness” and the “Adverse Events (CTCAE grade)” value ([4]; subject 068, pre-dose ABA 26.1, no premedication) was “None”. For the same substance, the “Adverse Events (CTCAE grade)” value ([4]; subject 070, pre-dose ABA 58.7, no premedication) was “Gr 1 headache”.
